Columns and labels:
Aqueous solubility = type: physicochemical
Source text: These characteristics challenge the ordinary skills and conventional methodologies in this technology, particularly when it comes to the preparation of formulations of these compounds that are to be readily used for medical purposes. Such uses preferably rely on formulations whose characteristics include one or more of the following: biocompatibility, stability under ambient conditions, or under conditions that are as near to ambient conditions as possible, with a shelf life that is as long as possible, and easy reconstitutability to form reconstituted solutions that are as stable under ambient, or near ambient conditions, for as long as possible.

[1] = tested on: solid and non-solid tumor cell lines; conditions: cited from earlier work
[2] = tested on: xenografted human cell lines in mice, such as breast and prostate; conditions: several xenografted human cell lines in mice; cited from earlier work

SMILES | aqueous solubility (Aqueous solubility) | in vitro activity [1] | in vivo activity [2]
COc1c(C)cc2c(c1O)[C@@H]1[C@@H]3Cc4c(OC(C)=O)c(C)c5c(c4[C@H](CNC(=O)/C=C/c4cccc(C(F)(F)F)c4)N3[C@@H](O)[C@H](C2)N1C)OCO5 [PM00104] | limited aqueous solubility | significant in vitro activity | significant in vivo activity
COc1c(C)cc2c(c1O)[C@@H]1[C@@H]3Cc4c(OC(C)=O)c(C)c5c(c4[C@H](COC(=O)/C=C/c4ccccc4)N3[C@@H](O)[C@H](C2)N1C)OCO5 [PM00121] | limited aqueous solubility | – | –
